Measurements from paper PMC10882719 (Frontiers in Neuroscience, 2024).
Where two headings read alike, the source gives them in different places.

Key:
Format in all cases: cell-based
168 GPCRs [1] = target: T1, 168 GPCRs (Homo sapiens, UniProt P08588)
T1 construct: host or cells: PathHunter cell lines

168 GPCRs [2] = target: T2, 168 GPCRs (Homo sapiens, UniProt P21731); settings: TBXA2R
T2 construct: host or cells: PathHunter cell lines
T2 sequence (P21731 1-343): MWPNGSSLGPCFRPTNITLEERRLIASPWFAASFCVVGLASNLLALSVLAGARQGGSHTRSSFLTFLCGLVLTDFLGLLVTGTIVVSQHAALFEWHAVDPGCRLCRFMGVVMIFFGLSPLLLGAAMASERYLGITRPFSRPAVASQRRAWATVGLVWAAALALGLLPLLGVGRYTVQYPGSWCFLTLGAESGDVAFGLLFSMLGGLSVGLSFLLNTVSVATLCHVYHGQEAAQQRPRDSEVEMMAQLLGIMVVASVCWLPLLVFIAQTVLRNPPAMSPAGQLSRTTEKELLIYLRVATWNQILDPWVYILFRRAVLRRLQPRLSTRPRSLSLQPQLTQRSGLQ

168 GPCRs [3] = target: T3, 168 GPCRs (Homo sapiens, UniProt P23945); settings: FSHR
T3 construct: host or cells: PathHunter cell lines
T3 sequence (P23945 18-695): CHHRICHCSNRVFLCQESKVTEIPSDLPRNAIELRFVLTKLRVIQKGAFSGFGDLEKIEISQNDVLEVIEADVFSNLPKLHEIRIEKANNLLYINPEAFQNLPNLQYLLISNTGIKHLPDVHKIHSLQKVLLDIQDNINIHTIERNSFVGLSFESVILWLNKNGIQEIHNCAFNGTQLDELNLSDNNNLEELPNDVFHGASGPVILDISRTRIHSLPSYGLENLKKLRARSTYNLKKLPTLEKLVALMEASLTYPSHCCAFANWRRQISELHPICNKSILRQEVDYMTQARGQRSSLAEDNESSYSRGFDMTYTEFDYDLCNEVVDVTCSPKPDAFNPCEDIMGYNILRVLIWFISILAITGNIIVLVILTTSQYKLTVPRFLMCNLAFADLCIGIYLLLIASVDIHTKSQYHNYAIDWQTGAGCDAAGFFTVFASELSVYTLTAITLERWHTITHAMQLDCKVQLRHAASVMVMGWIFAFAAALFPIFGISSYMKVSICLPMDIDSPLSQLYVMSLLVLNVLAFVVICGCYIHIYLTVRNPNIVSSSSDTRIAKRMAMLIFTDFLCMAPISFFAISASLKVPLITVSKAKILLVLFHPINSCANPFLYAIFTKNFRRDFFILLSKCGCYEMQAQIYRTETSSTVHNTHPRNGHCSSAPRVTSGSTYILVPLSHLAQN

168 GPCRs [4] = target: T4, 168 GPCRs (Homo sapiens, UniProt P34998)
T4 construct: host or cells: PathHunter cell lines
T4 sequence (P34998 24-415): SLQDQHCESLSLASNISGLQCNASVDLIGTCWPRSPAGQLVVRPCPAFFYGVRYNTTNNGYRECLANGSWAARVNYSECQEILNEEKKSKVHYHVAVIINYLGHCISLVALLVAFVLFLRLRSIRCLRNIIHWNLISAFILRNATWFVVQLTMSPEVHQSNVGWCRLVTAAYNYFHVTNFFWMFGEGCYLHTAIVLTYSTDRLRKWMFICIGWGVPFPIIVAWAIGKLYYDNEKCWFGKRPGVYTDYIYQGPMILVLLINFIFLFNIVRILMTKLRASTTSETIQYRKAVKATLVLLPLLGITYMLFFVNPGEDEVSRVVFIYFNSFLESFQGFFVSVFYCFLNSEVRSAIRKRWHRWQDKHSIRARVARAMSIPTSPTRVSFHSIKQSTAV

168 GPCRs [5] = target: T5, 168 GPCRs (Homo sapiens, UniProt P41597)
T5 construct: host or cells: PathHunter cell lines

168 GPCRs [6] = target: T6, 168 GPCRs (Homo sapiens, UniProt Q96RI0)
T6 construct: host or cells: PathHunter cell lines
T6 sequence (Q96RI0 18-385): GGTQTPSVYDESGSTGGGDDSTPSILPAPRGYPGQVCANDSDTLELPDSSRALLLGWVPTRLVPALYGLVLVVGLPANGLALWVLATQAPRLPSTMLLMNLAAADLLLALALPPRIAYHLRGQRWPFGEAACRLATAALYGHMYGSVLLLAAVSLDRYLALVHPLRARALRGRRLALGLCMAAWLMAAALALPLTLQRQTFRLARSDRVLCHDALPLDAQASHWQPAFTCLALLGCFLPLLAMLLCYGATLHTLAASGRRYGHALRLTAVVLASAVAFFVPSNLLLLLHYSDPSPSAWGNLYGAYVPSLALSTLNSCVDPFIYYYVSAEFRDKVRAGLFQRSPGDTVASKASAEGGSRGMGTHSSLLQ

T1 sequence (P08588 whole entry): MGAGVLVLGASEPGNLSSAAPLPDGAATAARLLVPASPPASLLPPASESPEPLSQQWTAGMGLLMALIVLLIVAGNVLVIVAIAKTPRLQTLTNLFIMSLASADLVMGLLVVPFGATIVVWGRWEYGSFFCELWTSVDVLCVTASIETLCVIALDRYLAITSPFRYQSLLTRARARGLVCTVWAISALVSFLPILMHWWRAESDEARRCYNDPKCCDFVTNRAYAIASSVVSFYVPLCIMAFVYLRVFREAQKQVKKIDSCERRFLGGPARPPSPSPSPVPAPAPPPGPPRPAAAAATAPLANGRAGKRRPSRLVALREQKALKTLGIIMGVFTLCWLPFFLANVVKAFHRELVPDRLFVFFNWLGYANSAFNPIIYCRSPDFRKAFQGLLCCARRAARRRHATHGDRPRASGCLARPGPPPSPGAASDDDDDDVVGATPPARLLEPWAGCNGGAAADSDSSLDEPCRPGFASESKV
T5 sequence (P41597 whole entry): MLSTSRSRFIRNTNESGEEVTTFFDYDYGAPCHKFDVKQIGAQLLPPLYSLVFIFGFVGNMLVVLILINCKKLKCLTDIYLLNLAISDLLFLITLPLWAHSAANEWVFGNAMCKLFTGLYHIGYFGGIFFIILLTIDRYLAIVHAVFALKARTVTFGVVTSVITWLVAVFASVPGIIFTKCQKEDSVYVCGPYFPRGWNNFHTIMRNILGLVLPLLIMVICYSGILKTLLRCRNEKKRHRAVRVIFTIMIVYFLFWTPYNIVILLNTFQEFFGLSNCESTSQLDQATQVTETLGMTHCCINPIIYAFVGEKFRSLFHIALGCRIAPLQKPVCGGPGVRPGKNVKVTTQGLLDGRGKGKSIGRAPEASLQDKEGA

With CNC(C)Cc1ccc2c(c1)OCO2 (stereo not drawn) [MDMA, 3,4-Methylenedioxy methamphetamine, reference compound] the “% Agonist Activity” value (168 GPCRs [1]; ADRB1, 1 uM) was 0.6%, the “% Antagonist Activity” value (168 GPCRs [1]; ADRB1, 1 uM) was 2% and the “% Agonist Activity” value (168 GPCRs [1]; ADRB1, 10 uM) was 0.5%. The “% Antagonist Activity” value (168 GPCRs [1]; ADRB1, 10 uM) was 1.9%, the “% Agonist Activity” value (168 GPCRs [2]; Conc 1 uM) was 2.8% and the “% Antagonist Activity” value (168 GPCRs [2]; Conc 1 uM) was 9.4%. For the same molecule, the “% Agonist Activity” value (168 GPCRs [2]; Conc 10 uM) was 1.6%, the “% Antagonist Activity” value (168 GPCRs [2]; Conc 10 uM) was 14.2% and the “% Agonist Activity” value (168 GPCRs [3]; 1 uM) was 0.7%. For the same molecule, the “% Antagonist Activity” value (168 GPCRs [3]; 1 uM) was 3.2%, the “% Agonist Activity” value (168 GPCRs [3]; 10 uM) was -0.1% and the “% Antagonist Activity” value (168 GPCRs [3]; 10 uM) was -5.8%. For the same molecule, the “% Agonist Activity” value (168 GPCRs [4]; CRHR1, 1 uM) was 0.7%, the “% Antagonist Activity” value (168 GPCRs [4]; CRHR1, 1 uM) was -1.7% and the “% Agonist Activity” value (168 GPCRs [4]; CRHR1, 10 uM) was 0.2%. The “% Antagonist Activity” value (168 GPCRs [4]; CRHR1, 10 uM) was 0.2%, the “% Agonist Activity” value (168 GPCRs [5]; CCR2, 1 uM) was 0.5% and the “% Antagonist Activity” value (168 GPCRs [5]; CCR2, 1 uM) was 9.2%. The “% Agonist Activity” value (168 GPCRs [5]; CCR2, 10 uM) was 0.7%, the “% Antagonist Activity” value (168 GPCRs [5]; CCR2, 10 uM) was 11.1% and the “% Agonist Activity” value (168 GPCRs [6]; F2RL3, 1 uM) was 10.8%. The “% Antagonist Activity” value (168 GPCRs [6]; F2RL3, 1 uM) was 9.6%, the “% Agonist Activity” value (168 GPCRs [6]; F2RL3, 10 uM) was 8.5% and the “% Antagonist Activity” value (168 GPCRs [6]; F2RL3, 10 uM) was 13.3%.
In the case of CNC(C)C(=O)c1ccc2c(c1)OCO2 (stereo not drawn) [methylone], the “% Agonist Activity” value (168 GPCRs [1]; ADRB1, 1 uM) is reported as -1.7%, the “% Antagonist Activity” value (168 GPCRs [1]; ADRB1, 1 uM) is reported as -0.8% and the “% Agonist Activity” value (168 GPCRs [1]; ADRB1, 10 uM) is reported as -1.4%. The “% Antagonist Activity” value (168 GPCRs [1]; ADRB1, 10 uM) was -1.2%, the “% Agonist Activity” value (168 GPCRs [2]; Conc 1 uM) was -1.1% and the “% Antagonist Activity” value (168 GPCRs [2]; Conc 1 uM) was -5.5%. The “% Agonist Activity” value (168 GPCRs [2]; Conc 10 uM) was -2.9%, the “% Antagonist Activity” value (168 GPCRs [2]; Conc 10 uM) was -19.7% and the “% Agonist Activity” value (168 GPCRs [3]; 1 uM) was -1%. For the same molecule, the “% Antagonist Activity” value (168 GPCRs [3]; 1 uM) was -11.8%, the “% Agonist Activity” value (168 GPCRs [3]; 10 uM) was -2.2% and the “% Antagonist Activity” value (168 GPCRs [3]; 10 uM) was -8.4%. For the same molecule, the “% Agonist Activity” value (168 GPCRs [4]; CRHR1, 1 uM) was 1.4%, the “% Antagonist Activity” value (168 GPCRs [4]; CRHR1, 1 uM) was 1.3% and the “% Agonist Activity” value (168 GPCRs [4]; CRHR1, 10 uM) was 1.1%. The “% Antagonist Activity” value (168 GPCRs [4]; CRHR1, 10 uM) was 0.6%, the “% Agonist Activity” value (168 GPCRs [5]; CCR2, 1 uM) was -0.4% and the “% Antagonist Activity” value (168 GPCRs [5]; CCR2, 1 uM) was 2%. For the same molecule, the “% Agonist Activity” value (168 GPCRs [5]; CCR2, 10 uM) was -0.5%, the “% Antagonist Activity” value (168 GPCRs [5]; CCR2, 10 uM) was 4.9% and the “% Agonist Activity” value (168 GPCRs [6]; F2RL3, 1 uM) was 4.3%. The “% Antagonist Activity” value (168 GPCRs [6]; F2RL3, 1 uM) was -11.3%, the “% Agonist Activity” value (168 GPCRs [6]; F2RL3, 10 uM) was 7% and the “% Antagonist Activity” value (168 GPCRs [6]; F2RL3, 10 uM) was -6.9%.
